Where two headings read alike, the source gives them in different places.
Key:
[1] = system: intimal and medial smooth muscle cells; test: Intimal and medial smooth muscle cell number; type: in vivo, New Zealand White rabbits; details: 6-week endpoint; mean ± SEM
Experimental: (§1) Three hours before euthanasia, animals receive an i.v. injection of 50 mg 5-bromo-2′-deoxyuridine (BrdU; Zymed Laboratories, San Francisco, Calif., USA) dissolved in 40% ethanol. After euthanasia, the transferred vessel segment is removed, flushed gently with saline, and divided into 4 parts of equal length. The proximal part is snap-frozen in liquid nitrogen and stored at −70° C. The next part is immersion-fixed in 4% paraformaldehyde/15% sucrose (pH 7.4) for 4 h, rinsed in 15% sucrose (pH 7.4) and embedded in paraffin. The 2nd most distal part is fixed in 70% ethanol overnight and embedded in paraffin. The distal part is fixed in […]/PBS (pH 7.4) for 10 minutes, rinsed in PBS, embedded in OCT compound (Miles) and stored at −70° C. The distal segments from 3 week end-point animals are stained for β-galactosidase activity in X-Gal staining solution at +37° C. for 16 h, followed by fixation similar to that for the second segment. Paraffin sections are used for the detection of endothelium (CD31, DAKO, 1:50), smooth muscle cells (HHF, DAKO, 1:50), macrophages (RAM-11, DAKO, 1:50), and BrdU positive cells (Bu20a, DAKO, 1:50). Controls for immunostainings include incubations with class- and species-matched immunoglobulins and omission of primary antibodies. Morphometry is performed with Leica Q5001lW software with a stereomicroscope connected to a digital camera (Leica).

[2] = rabbit, in vivo
Text: (§2) The cohort groups are also characterized with regard to animal weights, weight changes, extent of balloon injury (IEL damage), blood lipid profiles and basic hematologic parameters.

[3] = system: CD31-positive cells (endothelium) of the transfected vessel segment; test: Luminal endothelial cell coverage (CD31-positive cells) in transverse vessel sections; type: in vivo, New Zealand White rabbits
Experimental: Animals from the 8 groups are also analyzed with regard to luminal endothelial cell coverage from transverse vessel sections. This variable is determined by analysis of the percentage of the luminal surface that is covered by CD31-positive cells (CD31 is an endothelium-specific antibody from DAKO).
To investigate the mechanism underlying the observed beneficial effect of the combination therapy, the extent of endothelialization and the number of smooth muscle cells at the transfected vessel segment are analyzed (see Table 1). At the three-week time point, no difference in endothelial cell coverage is observed between the groups, although a trend towards an increased endothelial cell coverage in the combination group is seen (P=0.088). However, at the six-week time point, both groups that have received VEGF-C gene transfer display an increase in endotheilialization as compared to the control group. […] As shown in Table 4 (see below), the cell number is reduced by 52% (P<0.05) in the combination group as compared to control animal.
Three hours before euthanasia, animals receive an i.v. injection of 50 mg 5-bromo-2′-deoxyuridine (BrdU; Zymed Laboratories, San Francisco, Calif., USA) dissolved in 40% ethanol. After euthanasia, the transferred vessel segment is removed, flushed gently with saline, and divided into 4 parts of equal length. […]

[4] = rabbit, in vivo; remark: listed apart in the source
[5] = for Plasma STI571 concentration, day 3 peak: 10 mg/kg/d oral in two daily doses; for Plasma STI571 concentration, day 3 peak / Plasma STI571 concentration, day 10 peak / Plasma STI571 concentration, day 21 peak: 2 h after drug delivery; for Plasma STI571 concentration, day 42: 3 weeks after last dose; for Plasma STI571 concentration, day 3 nadir / Plasma STI571 concentration, day 10 nadir / Plasma STI571 concentration, day 21 nadir: immediately before next administration
Experimental: The drug, or control (=sterile water) is administered with an oro-gastric sond on trained, unsedated animals 1 h before the gene transfer and is repeated every 12 h thereafter for the following three weeks.
Blood sampling, […] with catheterizations or euthanasia, is performed under slight Fluanisone/Fentanyl sedation. […] The specimen is stored in heparinized tubes shielded from light and plasma is isolated by centrifugation within 2 h and stored at −70° C. STI concentration is determined by high-performance liquid chromatography
For HPLC, plasma proteins are precipitated by the addition of an equal volume of acetonitrile. After 20 to 30 min at room temperature, the precipitated proteins are removed by centrifugation (10,000 g, 5 min) and the supernatants are analyzed by reversed-phase HPLC.
HPLC is performed on Merck-Hitachi LaChrom® equipment. 100 μl of the supernatants are injected onto a Nucleosil® 100-5 C18 column (C-18 modified silica Gel, Macherey & Nagel) protected by a 20 mm guard column of the same material. The sample is eluted with a gradient of acetonitrile in water at a flow rate of 1 ml/min; after 5 min at 10% v/v acetonitrile, the concentration of acetonitrile is increased to 75% v/v over a period of 15 min. The column is prepared for the next sample by washing for 5 min with 75% v/v acetonitrile, returning to 10% acetonitrile over 5 min and 5 min reequilibration. The mobile phase contains 0.05% v/v trifluoroacetic acid. The eluent is monitored using UV absorbance at a wavelength of 265 nm. […] The concentration of the compound is determined by the external standard method using peak heights. […] The calibration standards are processed as above.

[6] = Complete blood count (hematological parameters); details: 3-week endpoint; mean ± SEM
Text: as §2
Blood samples are drawn for complete blood count at the time of euthanasia from randomly selected animals (n=3/group) in the 3-week endpoint cohort.

arterial intima = details: after re-injury of the arterial intima; cited from earlier work
[7] = system: intimal and medial smooth muscle cells; test: BrdU labelling of dividing smooth muscle cells; type: in vivo, New Zealand White rabbits; details: 6-week endpoint; mean ± SEM
Experimental: as §1

[8] = system: left anterior descending coronary artery injured by overdilatation and denudation; details: after PTCA, versus controls without RPR101511A; cited from earlier work

SMILES: Cc1ccc(NC(=O)c2ccc(CN3CCN(C)CC3)cc2)cc1Nc1nccc(-c2cccnc2)n1 [STI571, N-{5-[4-(4-methyl-piperazino-methyl)-benzoylamido]-2-methylphenyl}-4-(3-pyridyl)-2-pyrimidine-amine]
- Number of SMC, intima [1]: 1471 ± 287
- Number of SMC, media [1]: 2403 ± 381
- weight [2]: 2462 ± 90 g
- CD31 positive cell coverage (% of luminal circumference), mean ([3]; 3-week endpoint): 33.7 % of luminal circumference
- CD31 positive cell coverage (% of luminal circumference), mean ([3]; 6-week endpoint): 60.2 % of luminal circumference
- Bands (%) [4]: 0 ± 0%
- Hct (%) [4]: 31 ± 1.2%
- MCH [4]: 21 ± 0.8 pg
- MCV [4]: 64 ± 2.0 fL
- basophiles (%) [4]: 0 ± 0%
- eosinophiles (%) [4]: 3.4 ± 1.4%
- lymphocytes (%) [4]: 67.4 ± 4.1%
- monocytes (%) [4]: 2.4 ± 0.7%
- neutrophils (%) [4]: 26.8 ± 2.7%
- Plasma STI571 concentration, day 3 peak ([5]; LacZ transfected animals): 10.27 ± 1.28 µM
- Plasma STI571 concentration, day 42 ([5]; LacZ transfected animals): 0.04 ± 0.01 µM
- Plasma STI571 concentration, day 10 peak ([5]; LacZ transfected animals): 16.63 ± 1.99 µM
- Plasma STI571 concentration, day 21 peak ([5]; LacZ transfected animals): 13.18 ± 1.65 µM
- Plasma STI571 concentration, day 3 nadir ([5]; LacZ transfected animals): 3.57 ± 0.74 µM
- Plasma STI571 concentration, day 10 nadir ([5]; LacZ transfected animals): 5.16 ± 1.89 µM
- Plasma STI571 concentration, day 21 nadir ([5]; LacZ transfected animals): 3.86 ± 1.02 µM
- Plasma STI571 concentration, day 3 peak ([5]; VEGF-C transfected animals): 11.08 ± 1.10 µM
- Plasma STI571 concentration, day 42 ([5]; VEGF-C transfected animals): 0.05 ± 0.01 µM
- Plasma STI571 concentration, day 10 peak ([5]; VEGF-C transfected animals): 14.26 ± 1.26 µM
- Plasma STI571 concentration, day 21 peak ([5]; VEGF-C transfected animals): 13.58 ± 1.95 µM
- Plasma STI571 concentration, day 3 nadir ([5]; VEGF-C transfected animals): 3.11 ± 1.13 µM
- Plasma STI571 concentration, day 10 nadir ([5]; VEGF-C transfected animals): 2.41 ± 0.43 µM
- Plasma STI571 concentration, day 21 nadir ([5]; VEGF-C transfected animals): 2.95 ± 0.90 µM
- Hb [6]: 103 ± 3.6 g/L
- RBC count (× 10^12/l) [6]: 4.9 ± 0.2 × 10^12/l
- WBC count (× 10^9/l) [6]: 4.6 ± 0.6 × 10^9/l
- smooth muscle proliferation and lesion formation (arterial intima): inhibit smooth muscle proliferation and leasion formation
- BrdU positive SMC (%), intima [7]: 0.57 ± 0.13%
- BrdU positive SMC (%), media [7]: 0.39 ± 0.08%

SMILES: COc1cc2ncc(-c3ccsc3)nc2cc1OC.Cl [RPR101511A, 6,7-di-methoxy-2-thiophen-3-yl-quinoxaline hydrochloride]
- total intima/media ratio [8]: significant decrease
